US10836725B2, “Modulators of the integrated stress pathway” (Calico Life Sciences LLC, priority 2016, dated 2020)

What follows are molecules tested on ATF4 luciferase reporter (assay: ATF4-Luc assay in HEK293T cells carrying the ATF4 luciferase reporter (in vitro model of VWMD)). Settings: Homo sapiens, HEK-293T, 1 μg/mL tunicamycin, 7 hours, luminescence (One Glo).
Assay type: cell-based, human
How it was run: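 Reporter cells were stably generated by retroviral transduction and puromycin selection, then seeded at 30,000 cells/well. Next day, cells received 1 μg/mL tunicamycin with 200 nM test compound for 7 h, and luciferase luminescence was read with a one-step reagent. Values reported as EC50.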

Compared with CC(Cc1ccc(F)cc1)NC(=O)C12CC(NC(=O)COc3ccc(Cl)c(F)c3)(C1)C2 (stereo not shown) [Compound 171, 3-[2-(4-chloro-3-fluorophenoxy)acetamido]-N-[1-(4-fluorophenyl)propan-2-yl]bicyclo[1.1.1]pentane-1-carboxamide], CCCCc1ccc(CNC(=O)C23CC(NC(=O)COc4ccc(Cl)c(F)c4)(C2)C3)cc1 [Compound 238, N-[(4-butylphenyl)methyl]-3-[2-(4-chloro-3-fluorophenoxy)acetamido]bicyclo[1.1.1]pentane-1-carboxamide] is higher in EC50: 1000 to 2000 nM for the first, greater than 2000 nM for the second. The first is the more potent here.

First: O=C(COc1ccc(F)cc1)NC12CCC(C(=O)NCc3ccc(C(F)(F)F)cc3)(CC1)C(O)C2 (stereo not shown) [Compound 123, 4-[2-(4-fluorophenoxy)acetamido]-2-hydroxy-N-{[4-(trifluoromethyl)phenyl]methyl}bicyclo[2.2.2]octane-1-carboxamide]
Second: O=C(COc1ccc(Cl)c(F)c1)NC12CCC(C(=O)NCc3cccc(OC(F)(F)F)c3)(CC1)C(O)C2 (stereo not shown) [Compound 136, 4-[2-(4-chloro-3-fluorophenoxy)acetamido]-2-hydroxy-N-{[3-(trifluoromethoxy)phenyl]methyl}bicyclo[2.2.2]octane-1-carboxamide]
The EC50 of the first is lower: less than 250 nM for the first, 500 to 1000 nM for the second. The first is the more potent here.

Compared with O=C(COc1ccc(Cl)c(F)c1)NC12CCC(C(=O)NCc3cccc(F)c3)(CC1)C(O)C2 (stereo not shown) [Compound 129, 4-[2-(4-chloro-3-fluorophenoxy)acetamido]-N-[(3-fluorophenyl)methyl]-2-hydroxybicyclo[2.2.2]octane-1-carboxamide], Cc1cccc(CNC(=O)C23CCC(NC(=O)COc4ccc(Cl)c(F)c4)(CC2)CC3O)c1 (stereo not shown) [Compound 124, 4-[2-(4-chloro-3-fluorophenoxy)acetamido]-2-hydroxy-N-[(3-methylphenyl)methyl]bicyclo[2.2.2]octane-1-carboxamide] is higher in EC50: 250 to 500 nM for the first, 500 to 1000 nM for the second. The first is the more potent here.

Work on N#Cc1ccc(CNC(=O)C23CC(NC(=O)COc4ccc(Cl)c(F)c4)(C2)C3)cn1 [Compound 226, 3-[2-(4-chloro-3-fluorophenoxy)acetamido]-N-[(6-cyanopyridin-3-yl)methyl]bicyclo[1.1.1]pentane-1-carboxamide] yielded an EC50 greater than 2000 nM.
